Test results reported in paper PMC4491176, “Caenorhabditis elegans is a useful model for anthelmintic discovery” (Nature Communications, 2015).

Assays:
[1] = test system: three nematode species, zebrafish and HEK cells; experiment: Grouping by phylogenetic bioactivity profile (multi-organism screening pipeline); parameters: key: Group 1 molecules are lethal to only one or two of the three nematode species tested, but are non-lethal to zebrafish and HEK cells.; Group 2 molecules are lethal to all three nematode species, but are non-lethal to zebrafish and human cells.; Group 3 molecule are lethal to fish or HEK cells, regardless of their nematode bioactivity profile; conditions: nematode selectivity and cross-species lethality group
Description: To further characterize our 275 C. elegans-lethal molecules, we organized them into three separate groups based on their phylogenetic bioactivity profiles (Fig. 2a). Group 1 contains 102 molecules that are lethal to only one or two of the three nematode species tested, but are non-lethal to zebrafish and HEK cells. Group 2 contains 67 compounds that are lethal to all three nematode species, but are non-lethal to zebrafish and human cells. Group 3 contains the remaining 106 compounds that are lethal to fish or HEK cells, and have varied bioactivity in different nematode species. In particular, the 67 molecules in group 2 represent potentially ideal anthelmintic leads; they have activity across multiple nematode species, and appear not to affect vertebrates.

HEK293T cells = experiment: HEK293 cell proliferation (BrdU) chemical screening; assay type: cell-based; conditions: 60 μM, BrdU normalized signal <0.16
Procedure: HEK293T cells (Attisano Lab, University of Toronto) were maintained in Dulbecco's Modified Eagle's Medium (Gibco) supplemented with 10% FBS (DMEM-10% FBS). Cells at a concentration of 50 cells μl^−1 were seeded into 96-well plates at a final volume of 100 μl (∼5,000 cells per well). Chemicals from the wactive library were added to the wells for a final concentration of 60 μM (0.6% DMSO v/v). The wactive library plates were screened at least in triplicate. Cell proliferation was determined using a bromodeoxyuridine (BrdU) assay kit (Exalpha Biologicals Inc.). The BrdU was added 2 days after chemical addition. Fixation and denaturation was performed ∼16–18 h later. Anti-BrdU antibody was added, and incorporated BrdU was detected using a horseradish peroxidase-conjugated goat anti-mouse antibody. The BrdU incorporation signal was measured at 450/550 nm for the amount of conversion of tetra-methylbenzidine that is proportional to the amount of BrdU incorporated. For each replicate of each plate, the average signal for the DMSO control wells was calculated. For each well in the plate (including the DMSO control wells), the signal was normalized by dividing by the average DMSO signal. The mean and standard deviation for the population of 960 normalized sample signals of the 10-plate wactive library were calculated and found to be […] and 0.44, respectively.

[2] = test system: wact-11-family resistant C. elegans mutants (RP2674, RP2698 and others); experiment: 96-well liquid-based dose-response (in vivo LD100), wact-11-family resistant mutants; conditions: liquid dose-response of resistant mutants versus N2
Procedure: (§1) The 96-well liquid-based chemical screening assay was adapted from an established RNAi screening protocol. Briefly, saturated HB101 Escherichia coli culture was concentrated 2-fold using NGM (nematode growth media) containing 3 mg ml^−1 NaCl, 2.5 mg ml^−1 peptone, 5 μg ml^−1 cholesterol, 1 mM CaCl2, 1 mM MgSO4 and 25 mM KH2PO4. A total of 40 μl of NGM+HB101 was dispensed into each well of a 96-well plate, and chemicals were pinned into the wells using a pinning tool with a 300 nl slot volume (V&P Scientific). Approximately 20 synchronized first larval-stage (L1) worms, in 10 μl of M9 buffer (see ref. [24] for the recipe), were then added to each well. The synchronized L1s were obtained from an embryo preparation (see ref. [24] for the protocol) performed the previous day. The final concentration of dimethyl sulfoxide (DMSO) in the wells was 0.6% v/v. A dissection microscope was used to visualize the wells either 5 or 6 days post worm deposition and any obvious chemical-induced phenotypes were noted.
The 96-well liquid-based assay was also used for all follow-up dose-response experiments in this work. These experiments were carried out in quadruplicate, and the total number of worms in each well was counted 6 days after worm deposition.

C. elegans = C. elegans liquid-based chemical screening of the wactive library; assay type: in vivo, Caenorhabditis elegans; parameters: key: 1 = yes
Procedure: as §1
For our preliminary screens, 50,596 out of 67,012 compounds were assayed in liquid at a 60 μM concentration, and the other 16,416 molecules were screened on solid media at 25 μM (see ref. [24] for a description of our solid-based screening method). […]

H. contortus = H. contortus egg hatch chemical screen; assay type: in vivo, Haemonchus contortus; conditions: 90-100% lethal at 7.5 or 60 μM
Procedure: (§2) Fresh cattle and sheep faeces containing eggs of an ivermectin-resistant strain of C. onchophora[39] and the MHco3(ISE) strain of H. contortus, respectively, were kindly supplied by Dr Doug Colwell and Dawn Gray (Lethbridge Research Station, Agriculture and Agri-Food Canada). Experimental infections used to generate this material were carried out using established methods, and were approved by the Lethbridge AAFC Animal Care committee and conducted under animal use license ACC1407. Cattle faeces containing C. onchophora eggs were stored anaerobically at 4 °C for a maximum of 3 weeks, whereas sheep faeces containing H. contortus eggs were stored at 20 °C for no more than 48 h before harvesting eggs for use. Eggs were isolated from faeces using a standard saturated salt flotation method[42] immediately before each egg hatch assay. Approximately 100 eggs suspended in 100 μl of water were added to each well of a 96-well plate, and the wactive library chemicals were screened at two different concentrations (7.5 and 60 μM, 0.6% DMSO v/v). Baseline egg hatch rates were determined in DMSO control wells ∼48 h after the initial set-up of the assay by the addition of iodine tincture to stop development. […] A dissection microscope was used for visualization purposes.

D. rerio = experiment: Zebrafish embryo chemical screening; assay type: in vivo, Danio rerio (zebrafish); conditions: embryos, 10 μM, death or toxicity at 24 and 48 h post fertilization
Procedure: Wild-type (AB) zebrafish embryos were collected in E3 solution (5 mM NaCl, 0.17 mM KCl, 0.33 mM CaCl2, 0.33 mM MgSO4) immediately after fertilization and arrayed at three embryos per well in 96-well plates, 200 μl per well. Wild-type (AB) zebrafish were originally obtained from Zebrafish International Resource Center (University of Oregon). Chemicals were added to each well at 6 h post fertilization at a final concentration of 10 μM (0.5% v/v DMSO), with each plate containing nine wells of DMSO controls. Embryos were examined for mortality and observable developmental phenotypes at 24 and 48 h post fertilization using an Olympus SZX10 Brightfield microscope. Phenotypes examined were death, developmental delay, reduced pigmentation, cranial oedema or cardiac defects (slow/absent heart rate, abnormal heart size). Each compound was screened in duplicate, with only phenotypes appearing in both replicates associated with a given compound. Any compound producing multiple, distinct phenotypes across replicates (for example, cardiac defects in one replicate, mortality in another) was labelled ‘toxic'. A molecule was considered ‘lethal' to zebrafish if it induced ‘death' or ‘toxicity'.

C. onchophora = experiment: C. oncophora egg hatch chemical screen; assay type: in vivo, Cooperia onchophora; parameters: key: 1 = yes; conditions: 90-100% lethal at 7.5 or 60 μM
Procedure: as §2

**Q.** `Brc1ccc(-c2noc(-c3cccs3)n2)cc1` [wact-2] was tested. Which “Group # (Bioactivity Group #)” value [1] did it give?
**A.** 1

**Q.** And the “HEK Cell Growth Decrease (1 = yes)” value (HEK293T cells)?
**A.** 0

**Q.** What about the “Resistance of wact-11-family resistant mutants to compound-induced lethality (in words)” value [2] of the same compound?
**A.** not

**Q.** And the “C. elegans Lethal (1 = yes)” value (C. elegans; 100% lethality at 60 μM or less)?
**A.** 1

**Q.** And the “Wactive (1 = yes)” value (C. elegans; induces obvious phenotype in C. elegans at 60 μM or less)?
**A.** 1

**Q.** What about the “H. contortus Lethal (1 = yes)” value (H. contortus) of the same compound?
**A.** 0

**Q.** And the “D. rerio Lethal (1 = yes)” value (D. rerio)?
**A.** 0

**Q.** What about the “C. onchophora Lethal (1 = yes)” value (C. onchophora) of the same compound?
**A.** 1
